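GI50: concentration for 50% inhibition of growth. TGI: total growth inhibition.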
Tests used:
Experiment in all cases: NCI tumour cell line growth inhibition, 384-well format
[1] = system: 786-0 renal
[2] = system: A498 renal
[3] = system: A549 NSCLC
[4] = system: BT-549 breast
[5] = system: CAKI-1 renal
[6] = system: CCRF-CEM leukemia
[7] = system: COLO 205 colon
[8] = system: DU-145 prostate
[9] = system: EKVX NSCLC
[10] = system: HCC-2998 colon
[11] = system: HCT-116 colon
[12] = system: HCT-15 colon
[13] = system: HL-60(TB) leukemia
[14] = system: HOP-62 NSCLC
[15] = system: HOP-92 NSCLC
[16] = system: HS 578T breast
[17] = system: HT29 colon
[18] = system: IGROV1 ovarian
[19] = system: K-562 leukemia
[20] = system: KM12 colon
[21] = system: LOX IMVI melanoma
[22] = system: M14 melanoma
[23] = system: MALME-3M melanoma
[24] = system: MCF7 breast
[25] = system: MDA-MB-231 breast
[26] = system: MDA-MB-435 melanoma
[27] = system: MDA-MB-468 breast
[28] = system: MOLT-4 leukemia
[29] = system: NCI-H226 lung
[30] = system: NCI-H23 lung
[31] = system: NCI-H322M lung
[32] = system: NCI-H460 NSCLC
[33] = system: NCI-H522 lung
[34] = system: NCI/ADR-RES ovarian
[35] = system: OVCAR-3 ovarian
[36] = system: OVCAR-4 ovarian
[37] = system: OVCAR-5 ovarian
[38] = system: OVCAR-8 ovarian
[39] = system: PC-3 prostate
[40] = system: RPMI-8226 leukemia
[41] = system: RXF 393 renal
[42] = system: SF-268 CNS
[43] = system: SF-295 CNS
[44] = system: SF-539 CNS
[45] = system: SK-MEL-2 melanoma
[46] = system: SK-MEL-28 melanoma
[47] = system: SK-MEL-5 melanoma
[48] = system: SK-OV-3 ovarian
[49] = system: SN12C renal
[50] = system: SNB-19 CNS
[51] = system: SNB-75 CNS
[52] = system: SR leukemia
[53] = system: SW-620 colon
[54] = system: T-47D breast
[55] = system: TK-10 renal
[56] = system: U251 glioblastoma
[57] = system: UACC-257 melanoma
[58] = system: UACC-62 melanoma
[59] = system: UO-31 renal
[60] = system: ACHN renal

## CCN1CCC(Oc2c(C#N)ncc3[nH]c4ncccc4c23)CC1
[1]
  GI50: 2.52 µM
  TGI: > 100 µM
[2]
  GI50: < 0.0456 µM
  TGI: 0.133 µM
[3]
  GI50: > 100 µM
  TGI: > 100 µM
[4]
  GI50: 0.147 µM
  TGI: 0.426 µM
[5]
  GI50: 3.4 µM
  TGI: > 100 µM
[6]
  GI50: 0.182 µM
  TGI: 0.356 µM
[7]
  GI50: 2.52 µM
  TGI: 5.81 µM
[8]
  GI50: 5.9 µM
  TGI: > 100 µM
[9]
  GI50: > 100 µM
  TGI: > 100 µM
[10]
  GI50: 0.0933 µM
  TGI: 0.41 µM
[11]
  GI50: 1.27 µM
  TGI: 2.85 µM
[12]
  GI50: 2.26 µM
  TGI: > 88.1 µM
[13]
  GI50: 0.548 µM
  TGI: 1.04 µM
[14]
  GI50: 0.311 µM
  TGI: 2.06 µM
[15]
  GI50: 0.183 µM
[16]
  GI50: 0.199 µM
  TGI: 1.4 µM
[17]
  GI50: 5.96 µM
  TGI: > 100 µM
[18]
  GI50: 1.63 µM
  TGI: > 100 µM
[19]
  GI50: 0.253 µM
  TGI: 0.694 µM
[20]
  GI50: 0.64 µM
  TGI: 3.9 µM
[21]
  GI50: 1.67 µM
  TGI: > 100 µM
[22]
  GI50: 0.398 µM
  TGI: 1.65 µM
[23]
  GI50: 9.76 µM
  TGI: > 100 µM
[24]
  GI50: 0.317 µM
  TGI: > 100 µM
[25]
  GI50: 26.3 µM
  TGI: 69.8 µM
[26]
  GI50: 0.52 µM
  TGI: 1.76 µM
[27]
  TGI: > 22.5 µM
[28]
  GI50: 0.172 µM
  TGI: 0.327 µM
[29]
  GI50: > 23.5 µM
  TGI: > 100 µM
[30]
  GI50: 0.423 µM
  TGI: 18.4 µM
[31]
  GI50: 0.449 µM
  TGI: > 100 µM
[32]
  GI50: 0.997 µM
  TGI: 3.94 µM
[33]
  GI50: 3.19 µM
  TGI: > 100 µM
[34]
  GI50: 0.13 µM
  TGI: 0.438 µM
[35]
  GI50: 0.501 µM
  TGI: 1.18 µM
[36]
  GI50: > 100 µM
  TGI: > 100 µM
[37]
  GI50: 2.65 µM
  TGI: > 100 µM
[38]
  GI50: 1.01 µM
  TGI: > 100 µM
[39]
  GI50: 4.79 µM
  TGI: > 90.2 µM
[40]
  GI50: 0.72 µM
  TGI: 1.97 µM
[41]
  GI50: 0.0515 µM
  TGI: 0.211 µM
[42]
  GI50: 3.5 µM
  TGI: 14.8 µM
[43]
  GI50: 0.12 µM
  TGI: 0.619 µM
[44]
  GI50: 0.0858 µM
  TGI: 0.273 µM
[45]
  GI50: 1.17 µM
  TGI: 4.47 µM
[46]
  GI50: > 100 µM
  TGI: > 100 µM
[47]
  GI50: 2.61 µM
  TGI: > 100 µM
[48]
  GI50: 0.578 µM
  TGI: > 24 µM
[49]
  GI50: 3.25 µM
  TGI: > 52.1 µM
[50]
  GI50: 4.56 µM
  TGI: > 100 µM
[51]
  GI50: 7.16 µM
  TGI: > 57.8 µM
[52]
  GI50: < 0.0396 µM
  TGI: 0.0928 µM
[53]
  GI50: 2.3 µM
  TGI: 5.54 µM
[54]
  GI50: > 100 µM
  TGI: > 100 µM
[55]
  GI50: 0.329 µM
[56]
  GI50: 1.59 µM
  TGI: > 100 µM
[57]
  GI50: > 100 µM
  TGI: > 100 µM
[58]
  GI50: 5.29 µM
  TGI: 27.5 µM
[59]
  GI50: 0.221 µM
  TGI: 1.65 µM

## Cc1cc(-c2ncc(-c3cccnc3)cc2/C=C/c2ccccc2)cnc1-c1cccnc1
[2]
  GI50: 2.78 µM
  TGI: 9.16 µM
[3]
  GI50: 3.33 µM
  TGI: > 100 µM
[60]
  GI50: 3.79 µM
[4]
  GI50: 2.32 µM
  TGI: 9.63 µM
[5]
  GI50: 3.04 µM
  TGI: 21.4 µM
[7]
  GI50: 6.06 µM
[8]
  GI50: 1.81 µM
  TGI: 3.55 µM
[9]
  GI50: 3.15 µM
[12]
  GI50: 3.54 µM
[13]
  GI50: 1.32 µM
  TGI: 2.59 µM
[14]
  GI50: 1.85 µM
  TGI: 4.11 µM
[16]
  GI50: 1.6 µM
  TGI: 3.56 µM
[17]
  GI50: 3.69 µM
[18]
  GI50: 3.72 µM
[19]
  GI50: 3 µM
  TGI: 32.2 µM
[20]
  GI50: 3.15 µM
  TGI: 12.1 µM
[21]
  GI50: 2.22 µM
  TGI: 5.08 µM
[22]
  GI50: 3.76 µM
  TGI: 12.6 µM
[23]
  GI50: 2.53 µM
  TGI: 6.85 µM
[25]
  GI50: 4.15 µM
  TGI: 22.5 µM
[26]
  GI50: 6.49 µM
[27]
  GI50: 3.34 µM
[28]
  GI50: 1.13 µM
  TGI: 2.34 µM
[31]
  GI50: 2.29 µM
  TGI: 5.49 µM
[32]
  GI50: 1.93 µM
  TGI: 3.46 µM
[33]
  GI50: 2.02 µM
  TGI: 5.12 µM
[34]
  GI50: 2.19 µM
  TGI: 5.42 µM
[35]
  GI50: 2.37 µM
  TGI: 5.95 µM
[36]
  GI50: 2.75 µM
  TGI: 9.25 µM
[38]
  GI50: 2.41 µM
  TGI: > 100 µM
[39]
  GI50: 2.04 µM
  TGI: 4.58 µM
[40]
  GI50: 0.62 µM
  TGI: 2.37 µM
[42]
  GI50: 3.68 µM
  TGI: 15.3 µM
[44]
  GI50: 3.76 µM
[47]
  GI50: 1.12 µM
  TGI: 2.57 µM
[48]
  GI50: 3.17 µM
  TGI: 11.3 µM
[50]
  GI50: 3.82 µM
  TGI: 19.6 µM
[51]
  GI50: 3.07 µM
  TGI: 16.7 µM
[53]
  GI50: 3.93 µM
[54]
  GI50: 1.93 µM
  TGI: 8.06 µM
[55]
  GI50: 3.24 µM
[56]
  GI50: 3.8 µM
[57]
  GI50: 6.52 µM
[58]
  GI50: 2.16 µM
  TGI: 7.5 µM
[59]
  GI50: 2.99 µM

Source: PubChem BioAssay (NCI)
